Counter-ions that a name gives are not always drawn.
How the values were obtained:
[1] = biological target: T1, recombinant human Lp-PLA2 (Homo sapiens, UniProt Q13093); assay: (1b) hrThioPAF assay, recombinant human Lp-PLA2; format: biochemical; details: Examples 266-412 were tested here, one experiment or average of multiple experiments, read-out: rhLp-PLA2 (pIC50) (converted)
T1 sequence (Q13093 22-441): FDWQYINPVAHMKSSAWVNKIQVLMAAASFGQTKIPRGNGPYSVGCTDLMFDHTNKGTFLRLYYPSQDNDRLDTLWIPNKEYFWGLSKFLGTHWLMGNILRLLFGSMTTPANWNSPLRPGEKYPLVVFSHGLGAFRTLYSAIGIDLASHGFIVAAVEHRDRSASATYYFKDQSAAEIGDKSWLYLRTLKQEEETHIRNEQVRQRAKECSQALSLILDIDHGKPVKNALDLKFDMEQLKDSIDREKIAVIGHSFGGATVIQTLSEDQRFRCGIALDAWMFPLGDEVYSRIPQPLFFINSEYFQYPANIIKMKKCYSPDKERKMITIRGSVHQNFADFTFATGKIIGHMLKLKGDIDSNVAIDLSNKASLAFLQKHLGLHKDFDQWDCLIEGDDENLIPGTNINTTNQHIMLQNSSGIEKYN
Procedure, shortened: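 Fluorogenic assay: 20 pM rhLp-PLA2 in 50 mM HEPES pH 7.4, 150 mM NaCl, 1 mM CHAPS with 1:3 serially diluted compounds; substrate mix of 40 μM 2-thio-PAF, 40 μM CPM, 400 μM NEM (pre-addition levels). 20 min at 25 °C in the dark; fluorescence ex 380/em 485 nm, pIC50 by curve fitting.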

[2] = biological target: T2, Lp-PLA2 in human plasma (Homo sapiens, UniProt Q13093); assay: (3b) Lp-PLA2 human plasma alternative Thio-PAF assay; format: biochemical; details: (3b) alternative Thio-PAF assay, pooled human plasma; Examples of 266-412 were tested here; read-out: pIC50 in the Lp-PLA2 human plasma assay (converted)
T2 construct: from tissue; host or cells: pooled human plasma
T2 sequence (Q13093 22-441): T1 sequence (Q13093 22-441)
Procedure, shortened: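 Pooled human plasma was preincubated with compound for 15 min at RT. Substrate solution (2 mM 2-thio-PAF, 52 μM CPM, 2.5 mM NEM in 50 mM HEPES pH 7.4, 150 mM NaCl, 1 mM CHAPS; pre-addition concentrations) was added, and the reaction was quenched with 5% TFA after 3 min. Fluorescence was read at ex 380/em 485 nm and fitted to give pIC50.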

SMILES: Cc1ccc(Oc2c(F)cc(COc3cc4n(c(=O)n3)CC3CN(C)C(=O)CN43)cc2F)cn1 (stereo not shown) [Example E360, 7-((3,5-difluoro-4-((6-methylpyridin-3-yl)oxy)benzyl)oxy)-2-methyl-11,11a-dihydro-1H-pyrazino[1′,2′:3,4]imidazo[1,2-c]pyrimidine-3,9(2H,4H)-dione, trifluoroacetic acid salt]
- IC50 [1]: ≤ 10000 nM
- IC50 [2]: ≤ 100 nM

SMILES: CC(C)(N)CC(=O)N1CCN2c3cc(OCc4ccc(F)c(F)c4)nc(=O)n3CC2C1 (stereo not shown) [Example E334, 2-(3-Amino-3-methylbutanoyl)-7-((3,4-difluorobenzyl)oxy)-3,4,11,11a-tetrahydro-1H-pyrazino[1′,2′:3,4]imidazo[1,2-c]pyrimidin-9(2H)-one]
- IC50 [1]: ≤ 10000 nM
- IC50 [2]: ≤ 100 nM

SMILES: O=c1nc(OCc2cc(F)c(Oc3ccnc(C(F)(F)F)c3)c(F)c2)cc2n1C[C@H]1C[C@@H](O)CN21 [Example E384, (7R,8aR)-3-((3,5-Difluoro-4-((2-(trifluoromethyl)pyridin-4-yl)oxy)benzyl)oxy)-7-hydroxy-7,8,8a,9-tetrahydropyrrolo[1′,2′:3,4]imidazo[1,2-c]pyrimidin-1(6H)-one]
- IC50 [1]: ≤ 10000 nM
- IC50 [2]: ≤ 100 nM

SMILES: CN1CC2Cn3c(cc(OCc4ccc(F)c(F)c4)nc3=O)N2CC1=O (stereo not shown) [Example E359, 7-((3,4-Difluorobenzyl)oxy)-2-methyl-11,11a-dihydro-1H-pyrazino[1,2′:3,4]imidazo[1,2-c]pyrimidine-3,9(2H,4H)-dione]
- IC50 [1]: ≤ 10000 nM
- IC50 [2]: ≤ 100 nM

SMILES: CC(=O)N1CCN2c3cc(OCc4cc(F)c(Oc5ccc(C)nc5)c(F)c4)nc(=O)n3CC2C1 (stereo not shown) [Example E299, 2-Acetyl-7-((3,5-difluoro-4-((6-methylpyridin-3-yl)oxy)benzyl)oxy)-3,4,11,11a-tetrahydro-1H-pyrazino[1′,2′:3,4]imidazo[1,2-c]pyrimidin-9(2H)-one]
- IC50 [1]: ≤ 10000 nM
- IC50 [2]: ≤ 100 nM

SMILES: NC1(C(=O)N2CCN3c4cc(OCc5ccc(F)c(F)c5)nc(=O)n4CC3C2)CCOCC1 (stereo not shown) [Example E345, 2-(4-Aminotetrahydro-2H-pyran-4-carbonyl)-7-((3,4-difluorobenzyl)oxy)-3,4,11,11a-tetrahydro-1H-pyrazino[1,2′:3,4]imidazo[1,2-c]pyrimidin-9(2H)-one]
- IC50 [1]: ≤ 10000 nM
- IC50 [2]: ≤ 100 nM

SMILES: O=C(C1CC1)N1CCN2c3cc(OCc4ccc(F)c(F)c4)nc(=O)n3CC2C1 (stereo not shown) [Example E330, 2-(Cyclopropanecarbonyl)-7-((3,4-difluorobenzyl)oxy)-3,4,11,11a-tetrahydro-1H-pyrazino[1′,2′:3,4]imidazo[1,2-c]pyrimidin-9(2H)-one]
- IC50 [1]: ≤ 10000 nM
- IC50 [2]: ≤ 100 nM

SMILES: O=c1nc(OCc2ccc(F)c(F)c2)cc2n1CC1CN(CC(F)(F)F)CCN21 (stereo not shown) [Example E338, 7-((3,4-Difluorobenzyl)oxy)-2-(2,2,2-trifluoroethyl)-3,4,11,11a-tetrahydro-1H pyrazino[1′,2′:3,4]imidazo[1,2-c]pyrimidin-9(2H)-one trifluoroacetate]
- IC50 [1]: 10 nM
- IC50 [2]: ≤ 100 nM

SMILES: N#Cc1cc(COc2cc3n(c(=O)n2)C[C@H]2C[C@H](N)CN32)ccc1F [Example E386, 5-((((7S,8aR)-7-Amino-1-oxo-1,6,7,8,8a,9-hexahydropyrrolo[1,2′:3,4]imidazo[1,2-c]pyrimidin-3-yl)oxy)methyl)-2-fluorobenzonitrile]
- IC50 [1]: ≤ 10000 nM
- IC50 [2]: ≤ 100 nM

SMILES: CC(=O)N1CCC2(CC1)Cn1c(cc(OCc3ccc(F)c(F)c3)nc1=O)N2C(C)=O [Example 408, 1,1-(7-((3,4-difluorobenzyl)oxy)-5-oxo-1H-spiro[imidazo[1,2-c]pyrimidine-2,4′-piperidin]-1,1′(3H,5H)-diyl)diethanone]
- IC50 [1]: ≤ 10000 nM
- IC50 [2]: ≤ 100 nM

SMILES: CCOC(=O)N1CCN2c3cc(OCc4ccc(F)c(F)c4)nc(=O)n3CC2C1 (stereo not shown) [Example E306, Ethyl 7-((3,4-difluorobenzyl)oxy)-9-oxo-3,4,11,11a-tetrahydro-1H-pyrazino[1′,2′:3,4]imidazo[1,2-c]pyrimidine-2(9H)-carboxylate]
- IC50 [1]: ≤ 10000 nM
- IC50 [2]: ≤ 100 nM

Source: patent US11999746B2, “Compounds” (GlaxoSmithKline Intellectual Property Development Limited, priority 2014, dated 2024)
